In PubChem BioAssay AID2060883 (Molecular Pharmacology Branch, DTP, NCI, 2025):

Test system: 843782-103-R-J1-PDC complex spheroid viability
Assay: Anticancer human tumor 843782-103-R-J1-PDC patient-derived lung adenocarcinoma cell line growth inhibition [RAS]
Conditions: for IC50: curve of first compound; for viability, T/C: stronger effect = lower value
Outline: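 Agents were tested in combination matrices in half-log decrements from a top concentration at or near clinical Cmax (10 microM if undetermined). Targets were multi-cell spheroids of tumour lines plus HUVEC and MSC stromal cells.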

[1] = second compound 0.000949 µM, first compound 0.0316 µM
[2] = second compound 0.000949 µM, first compound 0.1 µM
[3] = second compound 0.000949 µM, first compound 0.316 µM
[4] = second compound 0.000949 µM, first compound 1 µM
[5] = second compound 0.003 µM, first compound 0.0316 µM
[6] = second compound 0.003 µM, first compound 0.1 µM
[7] = second compound 0.003 µM, first compound 0.316 µM
[8] = second compound 0.003 µM, first compound 1 µM
[9] = second compound 0.00949 µM, first compound 0.0316 µM
[10] = second compound 0.00949 µM, first compound 0.1 µM
[11] = second compound 0.00949 µM, first compound 0.316 µM
[12] = second compound 0.00949 µM, first compound 1 µM
[13] = second compound 0.03 µM, first compound 0.0316 µM
[14] = second compound 0.03 µM, first compound 0.1 µM
[15] = second compound 0.03 µM, first compound 0.316 µM
[16] = second compound 0.03 µM, first compound 1 µM
[17] = second compound 0.0949 µM, first compound 0.0316 µM
[18] = second compound 0.0949 µM, first compound 0.1 µM
[19] = second compound 0.0949 µM, first compound 0.316 µM
[20] = second compound 0.0949 µM, first compound 1 µM
[21] = second compound 0.3 µM, first compound 0.0316 µM
[22] = second compound 0.3 µM, first compound 0.1 µM
[23] = second compound 0.3 µM, first compound 0.316 µM
[24] = second compound 0.3 µM, first compound 1 µM
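Also: viability read after seven days of compound exposure.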

SMILES: C=CC(=O)Nc1cc(Nc2nccc(-c3cn(C)c4ccccc34)n2)c(OC)cc1N(C)CCN(C)C + CCn1c(-c2cc(N3CCN(C)CC3)cnc2C(C)OC)c2c3cc(ccc31)-c1csc(n1)CC(NC(=O)C1CC1C)C(=O)N1CCCC(N1)C(=O)OCC(C)(C)C2
- IC50 (second compound 0.000949 µM): 0.296 µM
- IC50 (second compound 0.003 µM): 0.0289 µM
- IC50 (second compound 0.00949 µM): < 0.00316 µM
- IC50 (second compound 0.03 µM): < 0.00316 µM
- IC50 (second compound 0.0949 µM): < 0.00316 µM
- IC50 (second compound 0.3 µM): < 0.00316 µM
- viability, T/C (second compound 0.000949 µM, first compound 0.00316 µM): 81.5%
- viability, T/C (second compound 0.000949 µM, first compound 0.01 µM): 69%
- viability, T/C [1]: 71.1%
- viability, T/C [2]: 56.2%
- viability, T/C [3]: 49.4%
- viability, T/C [4]: 41.3%
- viability, T/C (second compound 0.003 µM, first compound 0.00316 µM): 60.1%
- viability, T/C (second compound 0.003 µM, first compound 0.01 µM): 55.5%
- viability, T/C [5]: 50%
- viability, T/C [6]: 41%
- viability, T/C [7]: 33.9%
- viability, T/C [8]: 30.2%
- viability, T/C (second compound 0.00949 µM, first compound 0.00316 µM): 34.9%
- viability, T/C (second compound 0.00949 µM, first compound 0.01 µM): 32.6%
- viability, T/C [9]: 32.1%
- viability, T/C [10]: 25.7%
- viability, T/C [11]: 26.9%
- viability, T/C [12]: 18.3%
- viability, T/C (second compound 0.03 µM, first compound 0.00316 µM): 18.6%
- viability, T/C (second compound 0.03 µM, first compound 0.01 µM): 19.4%
- viability, T/C [13]: 17.6%
- viability, T/C [14]: 16.9%
- viability, T/C [15]: 17.6%
- viability, T/C [16]: 14.2%
- viability, T/C (second compound 0.0949 µM, first compound 0.00316 µM): 17.8%
- viability, T/C (second compound 0.0949 µM, first compound 0.01 µM): 13.2%
- viability, T/C [17]: 13.7%
- viability, T/C [18]: 15.4%
- viability, T/C [19]: 14%
- viability, T/C [20]: 12.8%
- viability, T/C (second compound 0.3 µM, first compound 0.00316 µM): 13.8%
- viability, T/C (second compound 0.3 µM, first compound 0.01 µM): 13.2%
- viability, T/C [21]: 10.6%
- viability, T/C [22]: 11.8%
- viability, T/C [23]: 13.6%
- viability, T/C [24]: 10.4%

SMILES: NC1c2ccccc2OC12CCN(c1cnc3c(N4CCCc5ncccc54)n[nH]c3n1)CC2 (centres undefined) + CCn1c(-c2cc(N3CCN(C)CC3)cnc2C(C)OC)c2c3cc(ccc31)-c1csc(n1)CC(NC(=O)C1CC1C)C(=O)N1CCCC(N1)C(=O)OCC(C)(C)C2
- IC50 (second compound 0.000949 µM): < 0.0316 µM
- IC50 (second compound 0.003 µM): < 0.0316 µM
- IC50 (second compound 0.00949 µM): < 0.0316 µM
- IC50 (second compound 0.03 µM): < 0.0316 µM
- IC50 (second compound 0.0949 µM): < 0.0316 µM
- IC50 (second compound 0.3 µM): < 0.0316 µM
- viability, T/C [1]: 39.3%
- viability, T/C [2]: 25.7%
- viability, T/C [3]: 20%
- viability, T/C [4]: 19.5%
- viability, T/C (second compound 0.000949 µM, first compound 3.16 µM): 16.9%
- viability, T/C (second compound 0.000949 µM, first compound 10 µM): 12.2%
- viability, T/C [5]: 27.1%
- viability, T/C [6]: 19.2%
- viability, T/C [7]: 17.9%
- viability, T/C [8]: 16.2%
- viability, T/C (second compound 0.003 µM, first compound 3.16 µM): 13.6%
- viability, T/C (second compound 0.003 µM, first compound 10 µM): 10.3%
- viability, T/C [9]: 24.2%
- viability, T/C [10]: 15.6%
- viability, T/C [11]: 17%
- viability, T/C [12]: 15%
- viability, T/C (second compound 0.00949 µM, first compound 3.16 µM): 12.8%
- viability, T/C (second compound 0.00949 µM, first compound 10 µM): 8.86%
- viability, T/C [13]: 16.8%
- viability, T/C [14]: 14.8%
- viability, T/C [15]: 12.6%
- viability, T/C [16]: 12.7%
- viability, T/C (second compound 0.03 µM, first compound 3.16 µM): 14.2%
- viability, T/C (second compound 0.03 µM, first compound 10 µM): 9.33%
- viability, T/C [17]: 18.1%
- viability, T/C [18]: 14%
- viability, T/C [19]: 15.2%
- viability, T/C [20]: 13.8%
- viability, T/C (second compound 0.0949 µM, first compound 3.16 µM): 12.2%
- viability, T/C (second compound 0.0949 µM, first compound 10 µM): 9.38%
- viability, T/C [21]: 13.6%
- viability, T/C [22]: 13.6%
- viability, T/C [23]: 13.6%
- viability, T/C [24]: 12.8%
- viability, T/C (second compound 0.3 µM, first compound 3.16 µM): 11.7%
- viability, T/C (second compound 0.3 µM, first compound 10 µM): 7.8%
